Read-outs that look alike come from different tables or passages of the source.
How the values were obtained:
[1] = system: phosphorylation of Cdc2 Y15 (Wee1 substrate) in A427 cells; assay: Phosphorylated Cdc2 MSD Electrochemiluminescence Assay; type: cell-based; conditions: Homo sapiens
Procedure: Phosphorylated Cdc2 MSD Electrochemiluminescence Assay
The effect of Wee1 inhibitors on cellular phosphorylation of the Wee1 substrate Cdc2 was determined using the following protocol:
A total of 40,000 A427 cells in 100 uL culture medium (1640 medium+10% Fetal bovine serum+1% Penicillin-Streptomycin) were plated in 96-well cell culture plates. 3-fold serial dilutions of test compounds were prepared in completed PBS at 25× final concentration. After 20 hours, the plates were removed and 4 μL of each were added to the cells and incubated with shaking for 30 minutes at 37° C., 5% CO2. Each concentration was tested in duplicate. After a total 6 hours incubation, plates were removed and centrifuged for 5 minutes and 100 uL of supernatant from each well was removed. Cells were washed with 200 μL PBS and lysed with 50 μL MSD lysis buffer (Meso Scale Diagnostics) supplied with 1× complete ULTRA cocktail inhibitor (Roche).
To detect phosphorylation of Cdc2 Y15, 30 μL of capture antibody solution (CST catalog #9116S 1:200) was added into each well of the MSD plate (MSD catalog #L15XB-6), sealed and incubated at 4° C. with shaking (450 rpm) overnight. The antibody solution was removed, wells blocked with BSA solution and plates washed three times with PBST, followed by addition of 30 μl of cell lysate per well. After 2 hours of incubation, plates were washed three times with PBST. 30 μL of 1× detection antibody solution (CST catalog #4539S 1:200) was then added to each well and incubated for 1 hour. Plates were washed three times with PBST and 30 μL of 1× secondary antibody solution (MSD, catalog #:R32AB-1, 1:5000) was added to each well and incubated for 1 hour. Plates were washed three times with PBST and 150 μL of 1× Read Buffer T (MSD, catalog #R92TC-1) was added to each well of the MSD plate. The electrochemiluminescence signal was measured on a MESO SECTOR S600 plate reader. The percentage of remaining phosphorylated Cdc2 signal was calculated following the equation below.
[formula] • HC (high control): Cells treated with DMSO • Cpds: Cells treated with test compounds • LC (low control): Cells treated with positive control Wee1 inhibitor

[2] = target: T1, Wee1 kinase domain (Homo sapiens, UniProt P30291); assay: Wee1 Kinase Biochemical Assay (ADP-Glo); conditions: 15 uM ATP
T1 construct: Wee1 kinase domain was purchased from Carna (catalog #05-177); purchased Carna 05-177
T1 sequence (P30291 299-569 limits assumed): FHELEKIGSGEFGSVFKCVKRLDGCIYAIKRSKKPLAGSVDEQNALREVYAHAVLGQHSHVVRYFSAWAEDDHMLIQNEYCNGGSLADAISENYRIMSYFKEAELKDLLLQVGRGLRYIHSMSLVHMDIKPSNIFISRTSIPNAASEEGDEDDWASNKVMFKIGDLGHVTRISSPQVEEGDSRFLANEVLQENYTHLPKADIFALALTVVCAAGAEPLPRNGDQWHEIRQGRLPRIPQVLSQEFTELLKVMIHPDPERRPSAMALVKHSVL
Procedure, shortened: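 Carna Wee1 kinase domain at 1 nM, with 15 uM ATP and 2 ng/mL poly(Lys,Tyr 4:1) substrate in 40 mM Tris-HCl, 20 mM MgCl2, 0.1 mg/mL BSA, 2 mM DTT, run 4 h at 25° C. ADP formation read by ADP-Glo luminescence. Percent inhibition normalised to DMSO and saturating-inhibitor controls.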

[3] = A-427, class symbols, read-out: A427 pCDC2 MSD IC50
[4] = class symbols, 1 nM Wee1 enzyme, 4 hours at 25° C.

Structure (SMILES)	IC50 [1, 3]	IC50 [2, 4]	IC50 ([1]; A-427, pCDC2 MSD)	IC50 ([2]; Wee1 kinase domain, ADP-Glo)
CN=[S@@](C)(=O)c1cccc(N2c3nc(Nc4ccc(N5CCN(C)CC5)cc4)ncc3[C@@]3(C)COC(C)(C)C[C@@H]23)n1 (single isomer, unassigned) [Example 765]	100 to 1000 nM	< 10 nM	–	–
C[C@H]1COC(=O)N1c1cccc(N2c3nc(Nc4ccc([C@@H]5CCN(C)C5)nc4)ncc3[C@@]3(C)COC(C)(C)C[C@@H]23)n1 (single isomer, unassigned) [Example 265]	–	–	< 100 nM	< 10 nM
C[C@H]1COC(=O)N1c1cccc(N2c3nc(Nc4ccc(C5CNC5)cc4)ncc3[C@@]3(C)COC(C)(C)C[C@@H]23)n1 (single isomer, unassigned) [Example 310]	–	–	100 to 1000 nM	< 10 nM
C[C@H]1COC(=O)N1c1cccc(N2c3nc(Nc4ccc(N5CCN(C)CC5)cc4)ncc3[C@@]3(C)COCC[C@@H]23)n1 (single isomer, unassigned) [Example 702]	100 to 1000 nM	< 10 nM	–	–
CNCc1cccc(N2c3nc(Nc4ccc([C@@H]5CCC(=O)N5C)cc4)ncc3[C@@]3(C)COC(C)(C)C[C@@H]23)n1 (single isomer, unassigned) [Example 52]	–	–	< 100 nM	< 10 nM
C[C@H]1COC(=O)N1c1cccc(N2c3nc(Nc4ccc(O[C@@H]5CCNC5)nc4)ncc3[C@@]3(C)COC(C)(C)C[C@@H]23)n1 (single isomer, unassigned) [Example 287]	–	–	100 to 1000 nM	< 10 nM
Cc1cnc(Nc2ncc3c(n2)N(c2cccc(N=S(C)(C)=O)n2)[C@@H]2CC(C)(C)OC[C@]32C)cn1 (single isomer, unassigned) [Example 371]	–	–	100 to 1000 nM	< 10 nM
CNCc1cccc(N2c3nc(Nc4ccc5c(c4)C(=O)N(C)CC5(C)C)ncc3[C@@]3(C)COC(C)(C)C[C@@H]23)n1 (single isomer, unassigned) [Example 92]	–	–	100 to 1000 nM	< 10 nM
CN1[C@@H]2C[C@H]1CN(c1ccc(Nc3ncc4c(n3)N(c3cccc(N5CCOC5=O)n3)[C@@H]3CC(C)(C)OC[C@]43C)cc1)C2 [Example 700, 3-(6-((4bR,8aR)-4b,7,7-trimethyl-2-((4-((1R,5S)-6-methyl-3,6-diazabicyclo[3.1.1]heptan-3-yl)phenyl)amino)-4b,7,8,8a-tetrahydropyrano[3′,4′:4,5]pyrrolo[2,3-d]pyrimidin-9(5H)-yl)pyridin-2-yl)oxazolidin-2-one]	100 to 1000 nM	< 10 nM	–	–
CNCc1cccc(N2c3nc(Nc4ccc(N5C[C@@H](C)O[C@@H](C)C5)cc4)ncc3[C@]3(C)COC(C)(C)C[C@H]23)n1 (single isomer, unassigned) [Example 20]	–	–	100 to 1000 nM	< 10 nM
Cc1cc(Nc2ncc3c(n2)N(c2cccc(N=S(C)(C)=O)n2)[C@@H]2CC(C)(C)OC[C@]32C)ccc1N1CCN(C)CC1 (single isomer, unassigned) [Example 106]	–	–	< 100 nM	< 10 nM
CC1(C)C[C@H]2N(c3cccc(N4CCOC4=O)n3)c3nc(Nc4ccc(O[C@H]5CCNC5)cc4)ncc3[C@@]2(C)CO1 [Example 613, 3-(6-((4bR,8aR)-4b,7,7-trimethyl-2-((4-(((S)-pyrrolidin-3-yl)oxy)phenyl)amino)-4b,7,8,8a-tetrahydropyrano[3′,4′:4,5]pyrrolo[2,3-d]pyrimidin-9(5H)-yl)pyridin-2-yl)oxazolidin-2-one]	< 100 nM	< 10 nM	–	–
CN1CCC(n2cc(Nc3ncc4c(n3)N(c3cccc(C(C)(C)O)n3)[C@@H]3CC(C)(C)OC[C@]43C)cn2)CC1 (single isomer, unassigned) [Example 11]	–	–	100 to 1000 nM	< 10 nM
CNCc1cccc(N2c3nc(Nc4ccc(N5CCOC[C@H]5C)cc4)ncc3[C@@]3(C)COC(C)(C)C[C@@H]23)n1 (single isomer, unassigned) [Example 473]	100 to 1000 nM	< 10 nM	–	–
CC1(C)C[C@H]2N(c3cccc([C@@H]4CCCN4)n3)c3nc(Nc4ccn(C5CCOCC5)c(=O)c4)ncc3[C@@]2(C)CO1 (single isomer, unassigned) [Example 392, 1-(tetrahydro-2H-pyran-4-yl)-4-(((4bR,8aR)-4b,7,7-trimethyl-9-(6-((S)-pyrrolidin-2-yl)pyridin-2-yl)-4b,5,7,8,8a,9-hexahydropyrano[3′,4′:4,5]pyrrolo[2,3-d]pyrimidin-2-yl)amino)pyridin-2(1H)-one]	–	–	1000 to 10000 nM	–
CC[C@]1(O)CCc2ccc(N3c4nc(Nc5ccn(C6CCN(C)CC6)c(=O)c5)ncc4[C@@]4(C)COC(C)(C)C[C@@H]34)nc21 [Example 811, 4-(((4bR,8aR)-9-((S)-7-ethyl-7-hydroxy-6,7-dihydro-5H-cyclopenta[b]pyridin-2-yl)-4b,7,7-trimethyl-4b,5,7,8,8a,9-hexahydropyrano[3′,4′:4,5]pyrrolo[2,3-d]pyrimidin-2-yl)amino)-1-(1-methylpiperidin-4-yl)pyridin-2(1H)-one]	–	< 10 nM	–	–
CC1(C)C[C@@H]2N(c3cccc(N4CCOC4=O)n3)c3nc(Nc4ccc([C@@H]5CCNC5)cc4)ncc3[C@]2(C)CO1 (single isomer, unassigned) [Example 606]	–	10 to 100 nM	–	–
C[C@H]1COC(=O)N1c1cccc(N2c3nc(Nc4ccc(C5CNC5)cc4)ncc3[C@]3(C)COC(C)(C)C[C@H]23)n1 (single isomer, unassigned) [Example 308]	–	–	–	10 to 100 nM
CNCc1cccc(N2c3nc(NC(=O)[C@H]4C[C@@H]4c4cnn(C)c4)ncc3[C@@]3(C)COC(C)(C)C[C@@H]23)n1 [Example 763, (1S,2S)-2-(1-methyl-1H-pyrazol-4-yl)-N-((4bR,8aR)-4b,7,7-trimethyl-9-(6-((methylamino)methyl)pyridin-2-yl)-4b,5,7,8,8a,9-hexahydropyrano[3′,4′:4,5]pyrrolo[2,3-d]pyrimidin-2-yl)cyclopropane-1-carboxamide]	–	10 to 100 nM	–	–
CC1(C)C[C@@H]2N(c3cccc([C@H]4COCCN4)n3)c3nc(Nc4ccc(N5CCOCC5)cc4)ncc3[C@]2(C)CO1 [Example 732, (4bS,8aS)-4b,7,7-trimethyl-9-(6-((S)-morpholin-3-yl)pyridin-2-yl)-N-(4-morpholinophenyl)-4b,5,7,8,8a,9-hexahydropyrano[3′,4′:4,5]pyrrolo[2,3-d]pyrimidin-2-amine]	–	10 to 100 nM	–	–
CN1CC2(C1)CN(c1ccc(Nc3ncc4c(n3)N(c3cccc(N=S(C)(C)=O)n3)[C@H]3CC(C)(C)OC[C@@]43C)cc1)C2 (single isomer, unassigned) [Example 220]	–	–	–	100 to 1000 nM
C[C@H]1COC(=O)N1c1cccc(N2c3nc(Nc4ccc(O[C@@H]5CCNC5)cc4)ncc3[C@]3(C)COC(C)(C)C[C@H]23)n1 (single isomer, unassigned) [Example 326]	–	–	–	10 to 100 nM
CC1(C)C[C@@H]2N(c3cccc(N=S(C)(C)=O)n3)c3nc(Nc4ccc(O[C@@H]5CCNC5)cc4)ncc3[C@]2(C)CO1 (single isomer, unassigned) [Example 156]	–	–	–	10 to 100 nM
C[C@H]1COC(=O)N1c1cccc(N2c3nc(Nc4ccc([C@@H]5CCNC5)cc4)ncc3[C@]3(C)COC(C)(C)C[C@H]23)n1 (single isomer, unassigned) [Example 274]	–	–	–	10 to 100 nM
Cn1ccc(Nc2ncc3c(n2)N(c2cccc(N=S(C)(C)=O)n2)[C@@H]2CC(C)(C)OC[C@]32C)n1 (single isomer, unassigned) [Example 513]	–	< 10 nM	–	–
C[C@H]1COC(=O)N1c1cccc(N2c3nc(Nc4ccc(C5(C)COC5)cc4)ncc3[C@]3(C)COC(C)(C)C[C@H]23)n1 (single isomer, unassigned) [Example 302]	–	–	–	100 to 1000 nM

Reference: US20260166039A1 (SCHRÖDINGER, INC., priority 2022, published 2026)
